Source: patent publication US6620828B2, “Thiazole compounds and pharmaceutical compositions for inhibiting protein kinases and methods for their use” (Agouron Pharmaceuticals, Inc., priority 1999, dated 2003)

Test system: human umbilical vein endothelial cells (HUVEC)
Assay: HUVEC proliferation assay
Assay type: cell-based
Conditions: Homo sapiens, HUVEC, Inhibition of HUVEC Proliferation; 50 nM; crude combinatorial urea library; read-out: % inhibition @ 50 nM
How it was run: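 Readout was MTT dye reduction (A595) after 72 h of stimulation with VEGF at 6 ng/ml final. Compound, in 0.1% DMSO final, was added 1 h before VEGF to HUVEC starved 24 h in 1% FBS. % inhibition was scaled between VEGF-alone and unstimulated wells; IC50 was fitted from triplicate dose curves.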

Q: With `COc1cccc(C(=O)Nc2cc(-c3csc(-c4sc(NC(=O)NCCCN(C)C)nc4N)n3)c(F)cc2F)c1` as the molecule, how does the inhibition at 0.05 µM read?
A: 72%

Q: `COc1cccc(C(=O)Nc2cc(-c3csc(-c4sc(NC(=O)NCCN(C)C)nc4N)n3)c(F)cc2F)c1` was tested. Which inhibition at 0.05 µM did it give?
A: 63%

Q: Which inhibition at 0.05 µM does the source give for `COc1cccc(C(=O)Nc2cc(-c3csc(-c4sc(NC(=O)NCC(C)(C)N)nc4N)n3)c(F)cc2F)c1` here?
A: 73%

Q: `CCCCN(CCCC)CCCNC(=O)Nc1nc(N)c(-c2nc(-c3cc(NC(=O)c4cccc(OC)c4)c(F)cc3F)cs2)s1` was tested. Which inhibition at 0.05 µM did it give?
A: 81%

Same assay, conditions: Homo sapiens, HUVEC, Inhibition of HUVEC Proliferation; 50 nM; crude combinatorial urea library; read-out: Inhibition @ 50 nM

Q: For `CCN(CC)CCNC(=O)Nc1nc(N)c(-c2nc(-c3cc(NC(=O)c4cccc(OC)c4)c(F)cc3F)no2)s1`, which inhibition at 0.05 µM is on record?
A: 82%

Q: `COc1cccc(C(=O)Nc2cc(-c3noc(-c4sc(NC(=O)NC5CC(C)(C)NC(C)(C)C5)nc4N)n3)c(F)cc2F)c1` was tested. Which inhibition at 0.05 µM did it give?
A: 99%

Q: `COc1cccc(C(=O)Nc2cc(-c3noc(-c4sc(NC(=O)NCCc5ccc(N)cc5)nc4N)n3)c(F)cc2F)c1` was tested. Which inhibition at 0.05 µM did it give?
A: 88%

Q: `COc1cccc(C(=O)Nc2cc(-c3noc(-c4sc(NC(=O)NCCCN5CCOCC5)nc4N)n3)c(F)cc2F)c1` was tested. Which inhibition at 0.05 µM did it give?
A: 80%

Q: `COc1cccc(C(=O)Nc2cc(-c3noc(-c4sc(NC(=O)NCCC(C)C)nc4N)n3)c(F)cc2F)c1` was tested. Which inhibition at 0.05 µM did it give?
A: 96%

Q: With `COc1cccc(C(=O)Nc2cc(-c3noc(-c4sc(NC(=O)NCCC5CCCN5C)nc4N)n3)c(F)cc2F)c1` (centres unmarked) as the molecule, how does the inhibition at 0.05 µM read?
A: 104%

Q: `COc1cccc(C(=O)Nc2cc(-c3noc(-c4sc(NC(=O)NCCN5CCCCC5)nc4N)n3)c(F)cc2F)c1` was tested. Which inhibition at 0.05 µM did it give?
A: 78%

Q: With `COc1cccc(C(=O)Nc2cc(-c3noc(-c4sc(NC(=O)NCc5ccccc5)nc4N)n3)c(F)cc2F)c1` as the molecule, how does the inhibition at 0.05 µM read?
A: 61%

Q: Which inhibition at 0.05 µM does the source give for `COc1cccc(C(=O)Nc2cc(-c3noc(-c4sc(NC(=O)NCCCN5CCCCC5C)nc4N)n3)c(F)cc2F)c1` (centres unmarked) here?
A: 96%

Q: `COc1cccc(C(=O)Nc2cc(-c3noc(-c4sc(NC(=O)NC5CCN(Cc6ccccc6)CC5)nc4N)n3)c(F)cc2F)c1` was tested. Which inhibition at 0.05 µM did it give?
A: 82%

Q: `COc1cccc(C(=O)Nc2cc(-c3noc(-c4sc(NC(=O)NCC(C)(C)CN(C)C)nc4N)n3)c(F)cc2F)c1` was tested. Which inhibition at 0.05 µM did it give?
A: 77%

Q: How did the inhibition at 0.05 µM turn out when `COc1cccc(C(=O)Nc2cc(-c3noc(-c4sc(NC(=O)NCCC(=O)O)nc4N)n3)c(F)cc2F)c1` was run?
A: 56%

Q: For `CCN(CC)CCCNC(=O)Nc1nc(N)c(-c2nc(-c3cc(NC(=O)c4cccc(OC)c4)c(F)cc3F)no2)s1`, which inhibition at 0.05 µM is on record?
A: 85%

Q: With `COc1cccc(C(=O)Nc2cc(-c3noc(-c4sc(NC(=O)NCCc5cccnc5)nc4N)n3)c(F)cc2F)c1` as the molecule, how does the inhibition at 0.05 µM read?
A: 38%

Q: `COc1cccc(C(=O)Nc2cc(-c3noc(-c4sc(NC(=O)N[C@@H](CC(N)=O)C(N)=O)nc4N)n3)c(F)cc2F)c1` was tested. Which inhibition at 0.05 µM did it give?
A: 86%

Q: Which inhibition at 0.05 µM does the source give for `CNC(=O)CNC(=O)Nc1nc(N)c(-c2nc(-c3cc(NC(=O)c4cccc(OC)c4)c(F)cc3F)no2)s1` here?
A: 51%

Q: Which inhibition at 0.05 µM does the source give for `COc1cccc(C(=O)Nc2cc(-c3noc(-c4sc(NC(=O)NCCc5cncn5C)nc4N)n3)c(F)cc2F)c1` here?
A: 10%

Q: `CCN1CCCC1CNC(=O)Nc1nc(N)c(-c2nc(-c3cc(NC(=O)c4cccc(OC)c4)c(F)cc3F)no2)s1` (centres unmarked) was tested. Which inhibition at 0.05 µM did it give?
A: 12%

Q: How did the inhibition at 0.05 µM turn out when `COc1cccc(C(=O)Nc2cc(-c3noc(-c4sc(NC(=O)NC(C)CN(C)C)nc4N)n3)c(F)cc2F)c1` (centres unmarked) was run?
A: 27%

Q: For `COc1cccc(C(=O)Nc2cc(-c3noc(-c4sc(NC(=O)NCCCN5CCCC5)nc4N)n3)c(F)cc2F)c1`, which inhibition at 0.05 µM is on record?
A: 75%

Q: How did the inhibition at 0.05 µM turn out when `COc1cccc(C(=O)Nc2cc(-c3noc(-c4sc(NC(=O)NCCN(C(C)C)C(C)C)nc4N)n3)c(F)cc2F)c1` was run?
A: -6%

Q: How did the inhibition at 0.05 µM turn out when `COc1cccc(C(=O)Nc2cc(-c3noc(-c4sc(NC(=O)NCCCN5CCN(C)CC5)nc4N)n3)c(F)cc2F)c1` was run?
A: 72%

Q: With `COc1cccc(C(=O)Nc2cc(-c3noc(-c4sc(NC(=O)NCCN5CCNC5=O)nc4N)n3)c(F)cc2F)c1` as the molecule, how does the inhibition at 0.05 µM read?
A: -2%

Q: With `COc1cccc(C(=O)Nc2cc(-c3noc(-c4sc(NC(=O)NCCC(C)=O)nc4N)n3)c(F)cc2F)c1` as the molecule, how does the inhibition at 0.05 µM read?
A: 6%

Q: With `CCN(CC)CCCC(C)NC(=O)Nc1nc(N)c(-c2nc(-c3cc(NC(=O)c4cccc(OC)c4)c(F)cc3F)no2)s1` (centres unmarked) as the molecule, how does the inhibition at 0.05 µM read?
A: 7%

Q: How did the inhibition at 0.05 µM turn out when `COc1cccc(C(=O)Nc2cc(-c3noc(-c4sc(NC(=O)NCCCCN(C)C)nc4N)n3)c(F)cc2F)c1` was run?
A: -3%

Q: For `COc1cccc(C(=O)Nc2cc(-c3noc(-c4sc(NC(=O)NCCCCCCN(C)C)nc4N)n3)c(F)cc2F)c1`, which inhibition at 0.05 µM is on record?
A: -6%

Q: `COc1cccc(C(=O)Nc2cc(-c3noc(-c4sc(NC(=O)NCC(C)N(C)C)nc4N)n3)c(F)cc2F)c1` (centres unmarked) was tested. Which inhibition at 0.05 µM did it give?
A: -25%

Q: `COc1cccc(C(=O)Nc2cc(-c3noc(-c4sc(NC(=O)NCCCN5CCCCCC5)nc4N)n3)c(F)cc2F)c1` was tested. Which inhibition at 0.05 µM did it give?
A: 21%

Q: With `COc1cccc(C(=O)Nc2cc(-c3noc(-c4sc(NC(=O)NCCCN5CCCCC5)nc4N)n3)c(F)cc2F)c1` as the molecule, how does the inhibition at 0.05 µM read?
A: -20%

Q: `COc1cccc(C(=O)Nc2cc(-c3noc(-c4sc(NC(=O)NC5CCS(=O)(=O)C5)nc4N)n3)c(F)cc2F)c1` (centres unmarked) was tested. Which inhibition at 0.05 µM did it give?
A: -7%

Q: Which inhibition at 0.05 µM does the source give for `COc1cccc(C(=O)Nc2cc(-c3noc(-c4sc(NC(=O)NCCC(=O)NCC(=O)O)nc4N)n3)c(F)cc2F)c1` here?
A: 49%

Q: For `COc1cccc(C(=O)Nc2cc(-c3noc(-c4sc(NC(=O)NCC#N)nc4N)n3)c(F)cc2F)c1`, which inhibition at 0.05 µM is on record?
A: 12%

Q: For `COc1cccc(C(=O)Nc2cc(-c3noc(-c4sc(NC(=O)NCC(=O)NO)nc4N)n3)c(F)cc2F)c1`, which inhibition at 0.05 µM is on record?
A: -12%

Q: `COc1cccc(C(=O)Nc2cc(-c3noc(-c4sc(NC(=O)NCC(=O)O)nc4N)n3)c(F)cc2F)c1` was tested. Which inhibition at 0.05 µM did it give?
A: 73%

Q: With `COc1cccc(C(=O)Nc2cc(-c3noc(-c4sc(NC(=O)NCCS(=O)(=O)O)nc4N)n3)c(F)cc2F)c1` as the molecule, how does the inhibition at 0.05 µM read?
A: 88%

Q: For `CCC(O)CNC(=O)Nc1nc(N)c(-c2nc(-c3cc(NC(=O)c4cccc(OC)c4)c(F)cc3F)no2)s1` (centres unmarked), which inhibition at 0.05 µM is on record?
A: 93%

Q: For `COc1cccc(C(=O)Nc2cc(-c3noc(-c4sc(NC(=O)NCC(C)(C)CO)nc4N)n3)c(F)cc2F)c1`, which inhibition at 0.05 µM is on record?
A: 104%

Q: With `CCN1CC(NC(=O)Nc2nc(N)c(-c3nc(-c4cc(NC(=O)c5cccc(OC)c5)c(F)cc4F)no3)s2)CN1CC` as the molecule, how does the inhibition at 0.05 µM read?
A: 92%

Q: `CCN(CCNC(=O)Nc1nc(N)c(-c2nc(-c3cc(NC(=O)c4cccc(OC)c4)c(F)cc3F)no2)s1)c1cccc(C)c1` was tested. Which inhibition at 0.05 µM did it give?
A: 67%

Q: For `COc1cccc(C(=O)Nc2cc(-c3noc(-c4sc(NC(=O)NCC(=N)N)nc4N)n3)c(F)cc2F)c1`, which inhibition at 0.05 µM is on record?
A: 65%

Q: Which inhibition at 0.05 µM does the source give for `COc1cccc(C(=O)Nc2cc(-c3noc(-c4sc(NC(=O)NCC(C)(C)C)nc4N)n3)c(F)cc2F)c1` here?
A: 55%

Q: `COc1cccc(C(=O)Nc2cc(-c3noc(-c4sc(NC(=O)NC(=O)NCC5(O)CCCCC5)nc4N)n3)c(F)cc2F)c1` was tested. Which inhibition at 0.05 µM did it give?
A: 99%

Q: How did the inhibition at 0.05 µM turn out when `COc1cccc(C(=O)Nc2cc(-c3noc(-c4sc(NC(=O)NCCc5c[nH]cn5)nc4N)n3)c(F)cc2F)c1` was run?
A: 72%

Q: For `COc1cccc(C(=O)Nc2cc(-c3noc(-c4sc(NC(=O)NCS(=O)(=O)O)nc4N)n3)c(F)cc2F)c1`, which inhibition at 0.05 µM is on record?
A: 30%

Q: `COc1cccc(C(=O)Nc2cc(-c3noc(-c4sc(NC(=O)NCCCN(C)c5ccccc5)nc4N)n3)c(F)cc2F)c1` was tested. Which inhibition at 0.05 µM did it give?
A: 84%

Q: How did the inhibition at 0.05 µM turn out when `COc1cccc(C(=O)Nc2cc(-c3noc(-c4sc(NC(=O)NCc5ccc(S(N)(=O)=O)cc5)nc4N)n3)c(F)cc2F)c1` was run?
A: 82%

Q: How did the inhibition at 0.05 µM turn out when `COc1cccc(C(=O)Nc2cc(-c3noc(-c4sc(NC(=O)NCCCN(CCO)CCO)nc4N)n3)c(F)cc2F)c1` was run?
A: 84%

Q: `COc1cccc(C(=O)Nc2cc(-c3noc(-c4sc(NC(=O)NCCc5ccncc5)nc4N)n3)c(F)cc2F)c1` was tested. Which inhibition at 0.05 µM did it give?
A: 99%
